Test results published in patent US4760136A, “Chartreusin derivatives and salts thereof” (Ishihara Sangyo Kaisha, Ltd., priority 1984, dated 1988).
Counter-ions that a name gives are not always drawn.

Tests used:
Type in all cases: in vivo
ddY mice = experiment: Acute toxicity, intravenous (once), ddY mice; conditions: formulated per Preparation Example
Excerpt: (§1) In Table 7 are shown acute toxicity values (LD50, mg/kg) in ddY mice in the case of intravenously administering (once) each of the compounds of this invention in the form of preparations shown in the Preparation Examples shown in Table 7.

P-388 leukemia cells = experiment: Antitumor activity: P-388 leukemia cells inoculated intraperitoneally, drug administered intravenously, BDF1 mice; conditions: Mus musculus, P388, iv, BDF1 mice, P-388 i.p., read-out: T/C (%) of MST; for response vs control in vivo at 80 mg/kg: dose f: 80 mg/kg × 3, i.v. on days 1, 5 and 9; for response vs control in vivo at 20 mg/kg: dose b: 20 mg/kg × 3, i.v. on days 1, 5 and 9; for response vs control in vivo at 40 mg/kg: dose c: 40 mg/kg × 3, i.v. on days 1, 5 and 9
How it was run: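 Drug dosing was intravenous on the first, fifth and ninth days after intraperitoneal inoculation of P-388 leukemia cells (1×10^6 per mouse) into BDF1 mice. Vehicles were physiological saline alone, or saline with small amounts of sodium carboxymethyl cellulose or Tween-80.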

[1] = Acute toxicity, intravenous (once), ddY mice; conditions: mouse, in vivo, iv, formulated per Preparation Example
Excerpt: as §1

Row | Structure (SMILES) | LD50 (ddY mice) | response vs control in vivo at 80 mg/kg (P-388 leukemia cells) | LD50 [1] | response vs control in vivo at 20 mg/kg (P-388 leukemia cells) | response vs control in vivo at 40 mg/kg (P-388 leukemia cells)
1 | COC1C(O)C(C)OC(OC2C(Oc3cccc4c(OC(=O)CC(C)C)c5c(=O)oc6ccc(C)c7c(=O)oc(c34)c5c67)OC(C)C3OC(c4ccccc4)OC32)C1O (stereo not shown) [compound 227] | ≥ 80 mg/kg | 143% |  |  | 
2 | COC1C(O)C(C)OC(OC2C(Oc3cccc4c(OC(=O)CCCNC(=O)C(F)(F)F)c5c(=O)oc6ccc(C)c7c(=O)oc(c34)c5c67)OC(C)C3OC(c4ccccc4)OC32)C1O (stereo not shown) [Compound No. 24] |  |  | ≥ 40 mg/kg | 161% | 223%
3 | COC1C(O)C(C)OC(OC2C(Oc3cccc4c(OC(=O)CCNC=O)c5c(=O)oc6ccc(C)c7c(=O)oc(c34)c5c67)OC(C)C3OC(c4ccccc4C)OC32)C1O (stereo not shown) [Compound No. 55] |  |  | ≥ 40 mg/kg |  | 162%
4 | COC1C(O)C(C)OC(OC2C(Oc3cccc4c(OC(=O)C(CN)C(C)C)c5c(=O)oc6ccc(C)c7c(=O)oc(c34)c5c67)OC(C)C3OC(c4ccccc4)OC32)C1O (stereo not drawn) [compound 35, 6-O-(α-isopropyl-β-alanyl)-3',4'-O-benzylidene-chartreusin phosphate] |  |  | ≥ 40 mg/kg |  | 173%
5 | COC1C(O)C(C)OC(OC2C(Oc3cccc4c(OC(=O)CCNC(=O)OCc5ccccc5)c5c(=O)oc6ccc(C)c7c(=O)oc(c34)c5c67)OC(C)C3OC(c4cccc(F)c4)OC32)C1O (stereo not shown) [compound 73] |  |  | ≥ 40 mg/kg | 176% | 229%
6 | COC1C(O)C(C)OC(OC2C(Oc3cccc4c(OC(=O)CCNC(=O)CNC(=O)OCc5ccccc5)c5c(=O)oc6ccc(C)c7c(=O)oc(c34)c5c67)OC(C)C3OC(c4cccc(F)c4)OC32)C1O (stereo not shown) [Compound No. 61] |  |  | ≥ 40 mg/kg | 176% | 220%
7 | COC(=O)c1ccc(C(=O)Oc2c3cccc(O[C@@H]4O[C@H](C)[C@@H]5OC(C)(C)O[C@@H]5[C@H]4O[C@H]4O[C@H](C)[C@H](O)[C@H](OC)[C@H]4O)c3c3oc(=O)c4c(C)ccc5oc(=O)c2c3c54)cc1 [compound 207] |  | 192% | ≥ 80 mg/kg |  | 130%
8 | COC1C(O)C(C)OC(OC2C(Oc3cccc4c(OC(=O)CCCl)c5c(=O)oc6ccc(C)c7c(=O)oc(c34)c5c67)OC(C)C3OC(c4ccccc4)OC32)C1O (stereo not shown) [Compound No. 164] |  |  | ≥ 40 mg/kg | 198% | 
9 | CCN(CC)CCC(=O)Oc1c2cccc(OC3OC(C)C4OC(c5cccc(F)c5)OC4C3OC3OC(C)C(O)C(OC)C3O)c2c2oc(=O)c3c(C)ccc4oc(=O)c1c2c43 (stereo not drawn) [Compound No. 15, 6-O-(N,N-diethyl-β-alanyl)-3',4'-O-(m-fluorobenzylidene)-chartreusin hydrochloride] |  |  | ≥ 30 mg/kg | 189% | 
10 | CCC1(C)O[C@H]2[C@@H](O1)[C@@H](C)O[C@@H](Oc1cccc3c(OC(=O)CC(C)NC(=O)C(F)(F)F)c4c(=O)oc5ccc(C)c6c(=O)oc(c13)c4c56)[C@@H]2O[C@H]1O[C@H](C)[C@H](O)[C@H](OC)[C@H]1O (stereo partly shown) [compound 131] |  | 148% | ≥ 100 mg/kg |  | 
11 | CCN(CC)CCC(=O)Oc1c2cccc(OC3OC(C)C4OC(c5ccccc5)OC4C3OC3OC(C)C(O)C(OC)C3O)c2c2oc(=O)c3c(C)ccc4oc(=O)c1c2c43 (stereo not drawn) [Compound No. 8, 6-O-(N,N-Diethyl-β-Alanyl)-3',4'-O-Benzylidene-Chartreusin Hydrochloride] |  |  | ≥ 40 mg/kg | 186% | 220%
12 | CO[C@H]1[C@@H](O)[C@@H](C)O[C@H](O[C@H]2[C@H](Oc3cccc4c(OC(=O)c5ccc(C(F)(F)F)cc5)c5c(=O)oc6ccc(C)c7c(=O)oc(c34)c5c67)O[C@H](C)[C@@H]3OC(C)(C)O[C@@H]32)[C@@H]1O [Compound No. 182] |  | 192% | ≥ 80 mg/kg |  | 153%
13 | COC1C(O)C(C)OC(OC2C(Oc3cccc4c(OC(=O)CNC(=O)CNC(=O)CNC(=O)OCc5ccccc5)c5c(=O)oc6ccc(C)c7c(=O)oc(c34)c5c67)OC(C)C3OC(c4ccccc4)OC32)C1O (stereo not shown) [Compound No. 114, 6-O-(N-Carbobenzyloxy-Glycyl-Glycyl-Glycyl)-3',4'-O-Benzylidene-Chartreusin] |  |  | ≥ 40 mg/kg |  | 130%
14 | CO[C@H]1[C@@H](O)[C@@H](C)O[C@H](O[C@H]2[C@H](Oc3cccc4c(OC(=O)c5ccc(C(F)(F)F)cc5)c5c(=O)oc6ccc(C)c7c(=O)oc(c34)c5c67)O[C@H](C)[C@@H]3OC(c4ccccc4)O[C@@H]32)[C@@H]1O (stereo partly shown) [compound 195] |  |  | ≥ 40 mg/kg |  | 165%
